Experimental data: ChEMBL document CHEMBL1124205, “Synthesis and antiviral evaluation of 6'-substituted aristeromycins: potential mechanism-based inhibitors of S-adenosylhomocysteine hydrolase” (J Med Chem, 1988)

Assays:
Human alphaherpesvirus 2 [1] = experiment: Antiviral activity against herpes simplex virus type 2 HSV-2 (F) expressed as viral rating (VR); type: functional
Vaccinia virus [2] = details: read-out: ED50
Human alphaherpesvirus 2 [3] = experiment: Concentration at which 50% of the herpes simplex virus type 2 […] (F) induced cytopathic effect are inhibited is determined; type: functional; details: read-out: ED50 (the source's name)
Vaccinia virus [4] = experiment: Antiviral activity against vaccinia virus in HEP -2 cells; type: functional, Orthopoxvirus vaccinia
Human alphaherpesvirus 1 [5] = experiment: Antiviral activity against herpes simplex virus type 1 HSV-1 (F) expressed as viral rating (VR); type: functional
HEp-2 = experiment: Cytotoxic concentration against HEP-2 cells; type: functional, cell-based; details: Homo sapiens
Human alphaherpesvirus 1 [6] = experiment: Concentration at which 50% of the herpes simplex virus type 1 HSV-1 (F) induced cytopathic effect are inhibited is determined; type: functional; details: read-out: ED50 (the source's name)
Vaccinia virus [7] = experiment: Inhibition of vaccinia virus induced cytopathic effects in HEP -2 cells; type: functional; details: Orthopoxvirus vaccinia, read-out: ED50 (the source's name)

Row | SMILES | VR (Human alphaherpesvirus 2 [1]) | EC50 (Vaccinia virus [2]) [µM] | EC50 (Human alphaherpesvirus 2 [3]) [µM] | VR (Vaccinia virus [4]) | VR (Human alphaherpesvirus 1 [5]) | Concentration (HEp-2) [µM] | EC50 (Human alphaherpesvirus 1 [6]) [µM] | EC50 (Vaccinia virus [7]) [µM]
1 | C=C1C(CO)C(O)C(O)C1n1cnc2c(N)ncnc21 (stereo not drawn) | 0.3 | 0.55 | 5 | 0.9 | 0 | 50 | 16 | –
2 | Nc1ncnc2c1ncn2[C@H]1[C@H](O)[C@H](O)[C@@H](CO)[C@@H]1F | 0.1 | 63 | 90 | 0.4 | 0.1 | > 320 | 90 | –
3 | Nc1ncnc2c1ncn2C1C(O)C(O)C(CO)C1O (stereo not drawn) | 0.3 | 18 | 100 | 0.8 | 0.6 | > 320 | 100 | –
4 | Nc1ncnc2c1ncn2C1C(O)C(F)C(CO)C1O (stereo not drawn) | 0 | – | 225 | – | 0 | 225 | 225 | –
5 | Nc1ncnc2c1ncn2[C@H]1[C@H](O)[C@H](O)[C@@H](CO)[C@H]1F | 0.4 | – | 10 | 0.8 | 0.4 | 320 | 10 | 0.5
6 | Nc1nc2c(ncn2COC(CO)CO)c(=O)[nH]1 [GANCICLOVIR] | 1.6 | – | 1 | – | 1.4 | > 3200 | < 1 | –
7 | Nc1ncnc2c1ncn2[C@@H](C=O)O[C@@H](C=O)CO | 0 | 0.5 | > 3200 | 1.3 | – | 100 | – | –
